These results are taken from ChEMBL document CHEMBL5120857, “Rational design, synthesis and biological evaluation of dual PARP-1/2 and TNKS1/2 inhibitors for cancer therapy” (Eur J Med Chem, 2022).

In one data set the test system is MDA-MB-468. The experiment in a line: Antiproliferative activity against human MDA-MB-468 cells assessed as inhibition of cell growth incubated for 7 days by MTT assay. The data set is classed as functional, cell-based. The following applies: MDA-MB-468, 168 h. A general note: Formazan colour is commonly taken as a measure of viable cells.
The test system of data set [1] is HCT-116. The data set is described as follows: Induction of apoptosis in human HCT-116 cells assessed as late apoptotic cells at 1 uM incubated for 3 days by annexinV-FITC/propidium iodide staining based flow cytometry (reference value: 8.71 %). Particulars: time 3 day. The data set is classed as functional.
For data set [2], the system named is HCT-116. The experiment in a line: Induction of cell cycle arrest in human HCT-116 cells assessed as G2/M phase cells at 1 uM incubated for 3 days by propidium iodide staining based flow cytometry (reference value: 68.35 %). The data set is classed as functional. The following applies: time 3 day. In general terms: Flow cytometry measures light scatter and fluorescence of single cells or particles in a stream.

Data set [3] has as its target T1, Protein mono-ADP-ribosyltransferase TIPARP (Homo sapiens, UniProt Q7Z3E1).
T1 sequence (Q7Z3E1 whole entry): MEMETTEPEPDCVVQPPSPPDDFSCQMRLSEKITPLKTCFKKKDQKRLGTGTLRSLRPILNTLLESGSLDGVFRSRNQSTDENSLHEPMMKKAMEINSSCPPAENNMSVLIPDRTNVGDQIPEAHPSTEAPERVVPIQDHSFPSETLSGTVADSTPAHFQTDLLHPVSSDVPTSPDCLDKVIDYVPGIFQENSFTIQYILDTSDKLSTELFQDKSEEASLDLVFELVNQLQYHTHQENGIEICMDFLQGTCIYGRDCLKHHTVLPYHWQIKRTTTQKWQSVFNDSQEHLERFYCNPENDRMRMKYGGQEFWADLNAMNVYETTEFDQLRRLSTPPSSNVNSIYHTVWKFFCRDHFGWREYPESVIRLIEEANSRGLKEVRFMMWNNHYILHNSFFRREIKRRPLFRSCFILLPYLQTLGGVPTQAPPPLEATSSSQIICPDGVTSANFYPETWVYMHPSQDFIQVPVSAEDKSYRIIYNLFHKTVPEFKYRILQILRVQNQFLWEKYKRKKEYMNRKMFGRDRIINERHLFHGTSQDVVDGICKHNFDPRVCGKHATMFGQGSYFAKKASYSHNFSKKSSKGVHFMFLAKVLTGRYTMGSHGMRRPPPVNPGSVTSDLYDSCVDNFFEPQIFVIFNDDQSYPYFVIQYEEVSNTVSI
The experiment in a line: Inhibition of PARP-7 (unknown origin).

The target of data set [4] is T2, Protein mono-ADP-ribosyltransferase PARP12 (Homo sapiens, UniProt Q9H0J9).
T2 sequence (Q9H0J9 whole entry): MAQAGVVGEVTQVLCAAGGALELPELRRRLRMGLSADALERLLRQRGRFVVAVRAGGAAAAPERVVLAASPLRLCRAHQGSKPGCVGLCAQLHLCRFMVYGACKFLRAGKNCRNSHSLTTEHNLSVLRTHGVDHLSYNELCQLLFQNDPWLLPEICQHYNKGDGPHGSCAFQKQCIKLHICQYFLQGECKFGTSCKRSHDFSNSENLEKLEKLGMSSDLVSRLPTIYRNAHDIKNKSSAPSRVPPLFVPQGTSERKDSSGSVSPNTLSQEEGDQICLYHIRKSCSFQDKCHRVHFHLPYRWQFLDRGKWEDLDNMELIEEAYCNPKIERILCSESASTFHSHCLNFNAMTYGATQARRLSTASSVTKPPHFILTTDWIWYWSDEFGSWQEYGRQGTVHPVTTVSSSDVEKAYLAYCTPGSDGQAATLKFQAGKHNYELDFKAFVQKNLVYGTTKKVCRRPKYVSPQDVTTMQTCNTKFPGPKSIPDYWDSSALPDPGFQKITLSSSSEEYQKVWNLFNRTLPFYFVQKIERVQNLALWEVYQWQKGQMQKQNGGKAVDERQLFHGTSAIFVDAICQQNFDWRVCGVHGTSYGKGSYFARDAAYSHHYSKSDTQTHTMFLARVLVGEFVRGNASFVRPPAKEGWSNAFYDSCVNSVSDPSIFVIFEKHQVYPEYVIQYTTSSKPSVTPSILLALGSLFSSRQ
The experiment in a line: Inhibition of PARP-12 (unknown origin).

The nature of data set [5]: Toxicity in […] assessed as effect on body weight at 500 mg/kg, ip administered as single dose and measured on day 4 (reference value: 24.50 +/- 3.11 g). The data set is classed as organism-based. Particulars: in vivo.
The nature of data set [6]: Toxicity in […] assessed as effect on body weight at 500 mg/kg, ip administered as single dose and measured on day 7 (reference value: 26.00 +/- 3.16 g). The class given is organism-based. Particulars: in vivo.
A short description of data set [7]: Toxicity in […] assessed as morphological changes in duodenum at 500 mg/kg, ip by H&E staining based histopathological analysis. The data set is classed as organism-based. The following applies: in vivo.
The target of data set [8] is T3, Poly [ADP-ribose] polymerase tankyrase-2 (Homo sapiens) (UniProt Q9H2K2).
T3 sequence (whole entry): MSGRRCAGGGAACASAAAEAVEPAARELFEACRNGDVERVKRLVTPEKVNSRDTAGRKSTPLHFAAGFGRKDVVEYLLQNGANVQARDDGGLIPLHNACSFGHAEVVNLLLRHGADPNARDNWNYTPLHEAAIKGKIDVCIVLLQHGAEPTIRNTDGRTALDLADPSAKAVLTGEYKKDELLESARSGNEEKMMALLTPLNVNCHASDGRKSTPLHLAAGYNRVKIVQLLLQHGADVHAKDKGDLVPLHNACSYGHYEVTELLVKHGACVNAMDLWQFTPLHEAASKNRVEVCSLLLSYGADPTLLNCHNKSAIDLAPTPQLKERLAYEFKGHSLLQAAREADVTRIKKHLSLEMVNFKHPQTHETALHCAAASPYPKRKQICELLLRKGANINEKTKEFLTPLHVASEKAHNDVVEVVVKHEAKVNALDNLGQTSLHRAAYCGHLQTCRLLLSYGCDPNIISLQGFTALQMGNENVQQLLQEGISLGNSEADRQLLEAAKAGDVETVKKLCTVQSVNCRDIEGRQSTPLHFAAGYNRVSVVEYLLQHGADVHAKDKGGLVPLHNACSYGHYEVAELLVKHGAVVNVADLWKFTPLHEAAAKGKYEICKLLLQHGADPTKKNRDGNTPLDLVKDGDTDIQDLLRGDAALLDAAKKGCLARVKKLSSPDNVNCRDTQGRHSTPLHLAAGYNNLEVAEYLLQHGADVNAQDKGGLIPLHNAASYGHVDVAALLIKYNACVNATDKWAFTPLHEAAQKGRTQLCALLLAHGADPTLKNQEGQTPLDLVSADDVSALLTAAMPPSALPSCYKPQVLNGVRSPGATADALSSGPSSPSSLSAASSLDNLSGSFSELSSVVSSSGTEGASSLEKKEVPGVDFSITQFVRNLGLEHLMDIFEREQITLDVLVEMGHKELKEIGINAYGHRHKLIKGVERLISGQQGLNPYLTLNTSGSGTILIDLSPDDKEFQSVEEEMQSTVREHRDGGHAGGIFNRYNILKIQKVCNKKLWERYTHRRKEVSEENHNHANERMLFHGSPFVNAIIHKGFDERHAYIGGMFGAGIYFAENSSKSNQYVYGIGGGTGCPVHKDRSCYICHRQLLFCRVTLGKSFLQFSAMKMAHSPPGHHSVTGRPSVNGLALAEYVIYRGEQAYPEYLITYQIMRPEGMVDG
Particulars: dose 10.0 nM, time 1.0 hrs.

As for `COc1ccc(NC(=O)c2ccc(NC(=O)N3CCN(C(=O)c4cc(Cc5n[nH]c(=O)c6ccccc56)ccc4F)CC3)cc2)cc1`, the IC50 in the data set on MDA-MB-468 came to 90 nM; in data set [3], 15 nM; in [4], 371 nM. Further, the Activity in the data set on HCT-116 [1] was 15.3%; in the data set on HCT-116 [2] it was 31.42%; in data set [5], 23 g; in [6], 24.25 g; in data set [7], “Non-Toxic”. For the same compound, the inhibition in [8] stood at 68.5%.

In general, IC50 refers to the point on the concentration scale where inhibition reaches its midpoint. As usually defined, the inhibition is the change of the read-out against control, counted positive when it falls.
